Some results are limits rather than exact numbers.

In data set [1] the target is T1, Gonadotropin-releasing hormone receptor (Homo sapiens, UniProt P30968).
T1 sequence (P30968 whole entry): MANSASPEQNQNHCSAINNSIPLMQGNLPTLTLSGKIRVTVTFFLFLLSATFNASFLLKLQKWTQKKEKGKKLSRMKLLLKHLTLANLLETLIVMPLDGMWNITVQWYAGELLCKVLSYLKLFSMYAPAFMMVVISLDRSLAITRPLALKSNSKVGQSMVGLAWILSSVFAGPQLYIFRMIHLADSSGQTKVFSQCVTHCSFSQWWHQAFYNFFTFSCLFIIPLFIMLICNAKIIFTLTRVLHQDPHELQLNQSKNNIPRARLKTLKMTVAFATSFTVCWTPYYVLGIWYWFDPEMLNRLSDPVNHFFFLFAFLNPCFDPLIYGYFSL
Briefly: (§1) Binding affinity at human GnRH receptor.

Data set [2] addresses T1, Gonadotropin-releasing hormone receptor. Briefly: Binding affinity at human GnRH receptor by calcium mobilization assay. It counts as functional.
The nature of data set [3]: Tmax in postmenopausal women at 5 to 200 mg, po. It counts as ADME, organism-based. Conditions: female, human, in vivo.
The nature of data set [4]: Half life in postmenopausal women at 5 to 200 mg, po. In kind it is ADME, organism-based. Conditions: female, human, in vivo.
In data set [5] the test system is Rhesus monkey. Briefly: Suppression of circulating luteinizing hormone in monkey. In kind it is functional, Macaca mulatta.
The target in data set [6] is T2, Gonadotropin-releasing hormone receptor (Rattus norvegicus, UniProt P30969).
T2 sequence (P30969 whole entry): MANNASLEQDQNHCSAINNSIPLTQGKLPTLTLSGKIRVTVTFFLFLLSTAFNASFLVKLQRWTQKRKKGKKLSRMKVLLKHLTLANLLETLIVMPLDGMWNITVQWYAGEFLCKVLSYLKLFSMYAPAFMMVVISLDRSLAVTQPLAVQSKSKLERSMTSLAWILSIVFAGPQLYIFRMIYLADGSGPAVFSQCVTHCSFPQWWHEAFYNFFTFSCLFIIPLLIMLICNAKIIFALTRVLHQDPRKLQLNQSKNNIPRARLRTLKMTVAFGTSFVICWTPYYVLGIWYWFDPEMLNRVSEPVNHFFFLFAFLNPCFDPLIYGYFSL
Briefly: Binding affinity at rat GnRH receptor by competition binding assay.

Data set [7] in a line: Oral bioavailability in rat. It counts as ADME, organism-based. The following applies: in vivo.
Data set [8] concerns the target T1, Gonadotropin-releasing hormone receptor. Briefly: Binding affinity at human GnRH receptor by competition binding assay.
The target of data set [9] is T2, Gonadotropin-releasing hormone receptor. Briefly: Antagonist activity at rat GnRH receptor assessed as luteinizing hormone release in rat pituitary cells. In kind it is functional, cell-based, Pituitary gland cell. Conditions: read-out: pA2 (converted).
Data set [10] deals with Rattus norvegicus. Briefly: Suppression of circulating luteinizing hormone in rat at 110 mg/kg, po relative to control. It counts as functional.
Data set [11] deals with Plasma. As to the kind of experiment: Protein binding in rat plasma. In kind it is ADME, cell-free.
The target of data set [12] is T3, Gonadotropin-releasing hormone receptor (Homo sapiens) (UniProt P30968).
T3 sequence (whole entry): T1 sequence (P30968 whole entry)
Described as §1.

Data set [13] deals with T4, Gonadotropin-releasing hormone receptor (Macaca mulatta, UniProt Q8SPZ1).
T4 sequence (Q8SPZ1 whole entry): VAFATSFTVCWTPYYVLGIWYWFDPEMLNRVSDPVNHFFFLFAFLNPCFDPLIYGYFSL
Briefly: Activity at rhesus monkey GnRH receptor by inositol phosphate functional assay.

Data set [14] deals with T4, Gonadotropin-releasing hormone receptor. As to the kind of experiment: Binding affinity at monkey GnRH receptor.
Data set [15] in a line: AUC (0 to 8 hrs) in healthy male human at 10 mg. In kind it is ADME, organism-based. On the set-up: dose 10 mg, time < 8 hr. The following applies: plasma.
Data set [16] can be described thus: Cmax in healthy male human at 200 mg. The arrangement: dose 200 mg. The following applies: in vivo. It counts as ADME, organism-based.
Data set [17] can be described thus: AUC (0 to 8 hrs) in healthy male human at 200 mg. It counts as ADME, organism-based. The arrangement: dose 200 mg, time < 8 hr. Conditions: plasma.
Data set [18] can be described thus: Binding affinity at cynomolgus monkey GnRH receptor expressed in CHO cells. It counts as cell-based, Macaca fascicularis.
Data set [19] can be described thus: Activity at cynomolgus monkey GnRH receptor expressed in CHO cells assessed as inhibition of arachidonic acid release. It counts as cell-based. The following applies: Macaca fascicularis.
The subject of data set [20] is Cynomolgus monkey. As to the kind of experiment: Suppression of circulating luteinizing hormone in cynomolgus monkey at 30 mg/kg, po relative to baseline. In kind it is functional, Macaca fascicularis.
Data set [21] can be described thus: AUC (0 to 6 hrs) in cynomolgus monkey at 10 mg/kg, po. The following applies: plasma. The arrangement: time < 6 hr, dose 10 mg/kg, route oral. It counts as ADME, organism-based, Macaca fascicularis.
For data set [22], the system named is Cynomolgus monkey. As to the kind of experiment: Suppression of circulating luteinizing hormone in cynomolgus monkey at 10 mg/kg, po relative to baseline. It counts as functional, Macaca fascicularis.
Data set [23] is described as follows: Inhibition of circulating luteinizing hormone in cynomolgus monkey pituitary cells. It counts as functional, Macaca fascicularis, Pituitary gland cell.
Data set [24] is described as follows: Cmax in healthy male human at 10 mg. It counts as ADME, organism-based. On the set-up: dose 10 mg. The following applies: in vivo.
Data set [25] in a line: Oral bioavailability in monkey. It counts as ADME, organism-based, Macaca mulatta. The following applies: rhesus monkey, in vivo.
The target in data set [26] is T2, Gonadotropin-releasing hormone receptor. Briefly: Binding affinity at rat GnRH receptor.
For data set [27] the target is unchanged. As to the kind of experiment: Binding affinity at rat GnRH receptor by whole cell binding assay.
Data set [28] is described as follows: Binding affinity to alpha1 adrenergic receptor.
Data set [29] addresses 5-hydroxytryptamine receptor 2B (Homo sapiens) (UniProt P41595). Briefly: Binding affinity to 5HT2B receptor.

5-hydroxytryptamine receptor 2B (Homo sapiens), sequence (P41595 whole entry): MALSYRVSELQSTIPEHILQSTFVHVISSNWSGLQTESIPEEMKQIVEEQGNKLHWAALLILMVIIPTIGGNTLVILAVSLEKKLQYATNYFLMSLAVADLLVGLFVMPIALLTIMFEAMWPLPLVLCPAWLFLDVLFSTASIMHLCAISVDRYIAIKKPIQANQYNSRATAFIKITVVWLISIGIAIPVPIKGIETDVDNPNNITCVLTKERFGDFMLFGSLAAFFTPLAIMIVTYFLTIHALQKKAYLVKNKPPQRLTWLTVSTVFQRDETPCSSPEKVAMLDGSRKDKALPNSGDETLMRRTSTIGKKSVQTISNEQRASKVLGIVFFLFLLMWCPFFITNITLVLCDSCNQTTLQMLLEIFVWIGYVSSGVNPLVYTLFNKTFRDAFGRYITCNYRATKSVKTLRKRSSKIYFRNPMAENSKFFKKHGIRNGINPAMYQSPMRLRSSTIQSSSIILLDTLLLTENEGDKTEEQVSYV

In general, Ki refers to a measure of affinity in units of concentration, obtained from inhibition or displacement. The compound `COc1cccc(-c2c3n(c(=O)n(C[C@H](N)c4ccccc4)c2=O)C(c2ccccc2F)CS3)c1F` (stereo partly drawn) had a Ki in data set [1] of 0.04 µM.
The same measure, in the same setting: to `COc1cccc(-c2c(C)n(Cc3c(F)cccc3[S+](C)[O-])c(=O)n(C[C@H](N)c3ccccc3)c2=O)c1F` (stereo partly drawn) belongs 0.0044 µM; to `COc1cccc(-c2c(C)n(Cc3c(F)cccc3S(C)(=O)=O)c(=O)n(C[C@H](N)c3ccccc3)c2=O)c1F`, 0.0002 µM.
One may read the IC50 as the concentration at which inhibition is half-maximal. Turning to `CCCn1c(SCc2cc([N+](=O)[O-])ccc2OC)nc2cc(NC(=O)NC(C)(C)C)cc(C(=O)NC)c21`, in [2], the IC50 was found to be 41 µM.
`N[C@@H](Cn1c(=O)c(-c2ccccc2F)c2n(c1=O)C(c1ccccc1F)CS2)c1ccccc1` (stereo partly drawn) showed a Ki in data set [1] of 0.22 µM.
Same read-out and setting: under `COc1cccc(-c2c(C)n(Cc3c(F)cccc3F)c(=O)n(CC(C)(N)c3ccccc3)c2=O)c1F` (stereo not drawn) stands 0.023 µM.
Consider `CCSc1nc2cc(S(=O)(=O)NCc3ccccc3OC)ccc2n1Cc1ccccc1`, for which the IC50 in data set [2] turned out to be 3.4 µM.
In the case of `Cc1c(-c2ccccc2F)c(=O)n(C[C@H](N)c2ccccc2)c(=O)n1Cc1ccccc1F`, the affinity in data set [1], expressed as Ki, was 0.019 µM.
A word on the Tmax: it is the time from dosing to the highest level. For orientation: half-life means the time in which the quantity being followed falls by half. As for `COc1cccc(-c2c(C)n(Cc3c(F)cccc3F)c(=O)n(C[C@H](N)c3ccccc3)c2=O)c1F`, in data set [3], the Tmax is 0.4 h. The half-life in data set [4] is 2.7 h. In addition, in data set [5], the Activity was 32%.
The term bioavailability denotes the share of a dose that reaches the circulation, judged against a reference dose that is usually intravenous. Turning to `CCn1cc(CN2CCN(c3cccc4[nH]c(-c5ccc(C(C)(C)C)cc5)nc34)CC2)c(=O)[nH]c1=O`, the half-maximal inhibitory concentration (IC50) stood at 0.018 µM in data set [6] and 0.0016 µM in [8]. The compound further gave a bioavailability in data set [7] of 72%.
In the case of `CC[C@H]1OC(=O)[C@H](C)[C@@H](OC(=O)N2C(=O)OC[C@@H]2C)[C@H](C)[C@@H](O[C@@H]2O[C@H](C)C[C@H](N(C)CC3CC3)[C@H]2O)[C@@](C)(OC)C[C@@H](C)C(=O)[C@H](C)[C@H]2N(CCc3ccc(Cl)c(Cl)c3)C(=O)O[C@]12C`, the Kb in [9] is 0.00158 µM. Besides, in data set [10], the Activity is on record as 20%.
For the compound `COc1cccc(-c2c(C)n(Cc3c(F)cccc3C(F)(F)F)c(=O)n(C[C@H](N)c3ccccc3)c2=O)c1F`, affinity in [1] was put at a Ki of 0.0005 µM.
In data set [1], `N[C@@H](Cn1c(=O)c(-c2ccccc2F)c2n(c1=O)C(c1ccccc1F)CO2)c1ccccc1` (stereo partly drawn) returned a Ki of 0.23 µM.
The same measure, in the same setting: under `COc1cccc(-c2nn(Cc3c(F)cccc3C(F)(F)F)c(=O)n(C[C@H](N)c3ccccc3)c2=O)c1Cl` stands 0.0023 µM; under `COc1cccc(-c2c3n(c(=O)n(C[C@H](N)c4ccccc4)c2=O)C(c2ccccc2F)CS3)c1Cl` (stereo partly drawn), 0.0045 µM; under `COc1cccc(-n2c(=O)c(Cc3c(F)cccc3F)nn(C[C@H](N)c3ccccc3)c2=O)c1`, 0.11 µM.
As for `COc1cc(OC)c(NC(=O)c2ccc(Cc3cc4c(cc3C)C(C)(C)CCC4(C)C)o2)c(OC)c1`, the Ki in data set [6] was determined as 0.0038 µM. Moreover, the Activity in data set [11] stood at 99.9%.
Turning to `CCSc1nc2cc(NC(=O)C3CC3)ccc2n1C(C)C`, the IC50 in data set [2] was found to be 10 µM.
With `N[C@@H](Cn1c(=O)c(Cc2c(F)cccc2F)nn(-c2ccccc2F)c1=O)c1ccccc1`, the Ki in data set [1] amounted to 0.58 µM.
In data set [8], `CC(C)(C)c1ccc(-c2nc3c(N4CCN(Cc5ccnc(S(C)(=O)=O)n5)CC4)cccc3[nH]2)cc1` returned an IC50 of 0.0052 µM.
In [1], `N[C@@H](Cn1c(=O)c(-c2ccccc2F)c2n(c1=O)[C@@H](c1ccccc1)CS2)c1ccccc1` had an inhibition constant (Ki) of 0.11 µM.
On the same count and under the same terms, under `C=C1C(Cl)=CC=C1c1c(C)n(Cc2c(F)cccc2F)c(=O)n(C[C@H](N)c2ccccc2)c1=O` stands 0.014 µM.
In the case of `CC(C)(C)NC(=O)NCCc1nc2cc(S(=O)(=O)NCc3ccc(Cl)cc3)ccc2n1Cc1ccccc1`, the IC50 in data set [2] is less than 0.01 µM.
For the compound `CSc1ccc(CN2CCc3c(c(=O)n(CCN(C)CCc4ccccn4)c(=O)n3Cc3c(F)cccc3F)C2)cc1`, in data set [1], the Ki came to 0.015 µM.
The compound `Cc1cc(-c2c(OCC[C@@H]3CCN3)c3cc(C(=O)Nc4ccncn4)c(Cl)cc3[nH]c2=O)cc(C)c1C` displayed an Activity in data set [12] of 0.4 nM. In [13], this compound gave a half-inhibitory concentration (IC50) of 0.007 µM. The compound further showed a Ki in data set [14] of 0.0005 µM.
Take `CCc1nc(C)c(CN2CCN(c3cccc4[nH]c(-c5ccc(C(C)(C)C)cc5)nc34)CC2)[nH]1`: the IC50 in data set [8] turned out to be 0.0066 µM.
Still for that read-out and setting: under `FC(F)(F)c1nc2c(N3CCN(CCOc4cccc5[nH]c(=S)[nH]c45)CC3)cccc2[nH]1` stands 0.8 µM.
As a reminder, the AUC(0-t) is exposure summed from dosing to a finite time, without extrapolation to infinity. In general, Cmax refers to the highest concentration seen after dosing. In the case of `CONC(=O)Nc1ccc(-c2sc3c(c2CN(C)Cc2ccccc2)c(=O)n(-c2ccccc2)c(=O)n3Cc2c(F)cccc2F)cc1` [SUFUGOLIX], the AUC(0-t) at 8 h stood at 0.173 µg·h/mL in data set [15] and 2.56 µg·h/mL in data set [17]. Further, the Cmax in data set [16] came out at 0.274 µg/mL; in data set [24], 0.015 µg/mL. The IC50 in [18] was found to be 0.0006 µM; in data set [19] it was 0.01 µM. Moreover, the Activity is on record as 11% in data set [20], 18% in data set [22] and 36 nM in data set [23]. Further, the AUC(0-t) at 6 h in [21] stood at 850 nM·h.
Compound `COc1cccc(-c2c(C)n(Cc3c(F)cccc3F)c(=O)n(C[C@H](C)N(C)CCc3ccccn3)c2=O)c1` gave a Ki in [1] of 0.47 µM.
In turn, `CN[C@@H](Cc1ccccc1)Cn1c(=O)c(-c2cccc(OC)c2F)c(C)n(Cc2c(F)cccc2F)c1=O` registered a bioavailability in [25] of 22%.
Turning to `Cc1cc(C)cc(-c2[nH]c3c(c2[C@H](C)CNCCc2ccc(-c4nnn[nH]4)cc2)CN(C(=O)Cc2c(F)cccc2C(F)(F)F)CC3)c1`, the IC50 in data set [26] was 0.0002 µM.
For the compound `N[C@@H](Cn1c(=O)c(-c2ccccc2F)c2n(c1=O)C(c1ccccc1)CS2)c1ccccc1` (stereo partly drawn), in [1], the affinity, expressed as Ki, was 0.23 µM.
Still for that read-out and setting: under `COc1cccc(-c2nn(Cc3c(F)cccc3C(F)(F)F)c(=O)n(C[C@H](N)c3ccccc3)c2=O)c1F` stands 0.013 µM.
Compound `Cc1cc(C)cc(-c2[nH]c3ccc(C(C)(C)C(=O)N4CC5CCC4CC5)cc3c2[C@H](C)CNCCc2ccncc2)c1` returned an IC50 in data set [27] of 0.0017 µM. The Activity was determined as 114 nM in data set [28] and 165 nM in data set [29].

The record behind these values is ChEMBL document CHEMBL1150279, “Non-peptide gonadotropin-releasing hormone receptor antagonists” (J Med Chem, 2008).
